One assay deals with H1975. Description: CCK-8 proliferation, NCI-H1975 (H1975). It counts as cell-based, Human. As to conditions: Homo sapiens, NCI-H1975; CCK-8; 96 hours; read-out: Inhibitory activity (IC50) on tumor cell proliferation, H1975. An outline of the steps:
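Cells seeded, then after 24 h treated with 10 concentrations (top 10 µM, 5-fold serial dilution) for a line-specific time at 37°C, 5% CO2. Viability read by CCK-8; IC50 fitted from growth-inhibition curves.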

The subject of the next assay is MCF7. Description: CCK-8 proliferation, MCF7 (MCF-7). As to conditions: Homo sapiens, MCF7; CCK-8; read-out: Inhibitory activity (IC50) on tumor cell proliferation, MCF7. It is filed as cell-based. The method, then:
(§1) The tumor cells used herein were cultured in a cell culture medium listed in table A1 at 37°C in an incubator with 5% CO2. Prior to experimentation, all cell lines used were correctly identified by STR profiling, and tested negative for mycoplasma contamination using a mycoplasma detection kit through routine screenings. Table A1. Tumor cells and cell culture medium used in the present disclosure
(§2) IC50 values of the compounds of the present disclosure (including the compounds in Table 1, and compounds of examples) were measured using the Meilun Cell Counting Kit-8 kit from Dalian Meilun Biotech Co., Ltd. Assay details are as follows: tumor cells were seeded in a 96-well plate at a density listed in Table A2. After 24h, 100 µL of the inoculated cells were treated with 0.5µL of the compounds of the present disclosure (including the compounds in Tables 1 and 2, and compounds of examples) at 10 different successively decreasing concentrations (starting at the highest concentration of 10µM; 5-fold serial dilutions). After the cells were treated with the compounds of the present disclosure for a period of time, the cell viability detection reagent was added to the culture medium for cell viability assessment according to the instructions provided with the CCK-8 kit. […] The growth inhibition of the compounds of the present disclosure on cells was plotted by Prism Graphpad software, and the IC50 values of the compounds of the present disclosure were calculated therefrom. […] Seeding protocol and treatment time for tumor cells

Assay [1] has as its target T1, human Cereblon WT GST-tagged protein (Homo sapiens, UniProt Q96SW2).
T1 construct: purchased CISBIO 64BDCRBNPEH
The assay can be described thus: CRBN binding, HTRF (CEREBLON BINDING kit). Particulars: Table II-2, CRBN binding screening, HTRF. An outline of the steps:
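After 3 h at room temperature, emission at 665 and 620 nm was measured in a homogeneous time-resolved fluorescence format. Compounds competed with a Thalidomide-Re probe for GST-tagged wild-type human CRBN, which was labelled with a Eu anti-GST antibody.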

The test system of another assay is CCRF-CEM. The assay can be described thus: CCK-8 proliferation, CCRF-CEM. It is filed as cell-based, Human. As to conditions: Homo sapiens, CCRF-CEM; CCK-8; 96 hours; read-out: Inhibitory activity (IC50) on tumor cell proliferation, CCRF-CEM. The method, then: as §1, §2
The test system of another assay is MM.1S. The assay can be described thus: CCK-8 proliferation, MM.1S. It is filed as cell-based. As to conditions: Homo sapiens, MM1.S; CCK-8; 72 hours; read-out: Inhibitory activity (IC50) on tumor cell proliferation, MM1S. The method, then:
as §1, §2

Another assay has as its system EGFR. Description: Western blot degradation of EGFR (H1975 Cell). It counts as cell-based, Human. Particulars: Table D2. In short, it runs like this: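 Quantification by ImageJ densitometry of Western blot bands: DC50 is the fitted concentration halving band intensity relative to DMSO. Percent remaining uses internal-control normalization, and degradation rate is its complement.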
A general note: In western blotting, separated proteins are transferred to a membrane and probed.

T1 sequence (Q96SW2 whole entry): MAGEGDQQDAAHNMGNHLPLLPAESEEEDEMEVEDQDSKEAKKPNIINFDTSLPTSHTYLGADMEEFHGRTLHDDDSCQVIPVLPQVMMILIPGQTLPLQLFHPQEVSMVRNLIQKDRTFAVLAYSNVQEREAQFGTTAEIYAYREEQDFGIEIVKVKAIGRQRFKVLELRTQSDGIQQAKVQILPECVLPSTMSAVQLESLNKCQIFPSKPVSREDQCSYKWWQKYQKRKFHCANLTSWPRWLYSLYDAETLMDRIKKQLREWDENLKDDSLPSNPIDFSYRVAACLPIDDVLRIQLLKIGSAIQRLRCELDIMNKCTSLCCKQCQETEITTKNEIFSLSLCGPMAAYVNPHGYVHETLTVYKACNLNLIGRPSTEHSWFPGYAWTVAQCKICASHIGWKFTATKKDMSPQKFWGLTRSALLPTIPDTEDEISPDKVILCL

Broadly, the inhibition is how much of the control response was suppressed. Take `Cc1nc2c(F)cc(-c3nc(Nc4ccc(N5CCC(N6CCN(Cc7cncc(N8CCC(=O)NC8=O)c7)CC6)CC5)cn4)ncc3F)cc2n1C(C)C` [GT-07488, 1-(5-((4-(1-(6-((5-fluoro-4-(4-fluoro-1-isopropyl-2-methyl-1H-benzo[d]imidazol-6-yl)pyrimidin-2-yl)amino)pyridin-3-yl)piperidin-4-yl)piperazin-1-yl)methyl)pyridin-3-yl)dihydropyrimidine-2,4(1H,3H)-dione]: the IC50 in the assay on H1975 was in the range of 0.1 to 0.5 µM; in the assay on MCF7 it was 0.05 to 0.1 µM; with CCRF-CEM, 0.1 to 0.5 µM; with MM.1S it was 0.05 to 0.1 µM. Moreover, the inhibition at 0.5 µM in assay [1] (at 0.5µM, read-out: Inhibition rate (%) at 0.5µM) fell in the range of 53 to 60%. The inhibition at 2 µM in assay [1] (at 2 µM, read-out: Inhibition rate (%) at 2 µM) was 80 to 100%.
Consider `O=C1CCC(c2ccc(CN3CCN(C4CCN(c5ccc(-c6cc(F)c7c(c6)C(=O)N(C(C(=O)Nc6nccs6)c6ncn8c6CCC8)C7)cc5)CC4(F)F)CC3)cc2)C(=O)N1` (stereo not shown) [GT-06317, 2-(6,7-dihydro-5H-pyrrolo[1,2-c]imidazol-1-yl)-2-(6-(4-(4-(4-(4-(2,6-dioxopiperidin-3-yl)benzyl)piperazin-1-yl)-3,3-difluoropiperidin-1-yl)phenyl)-4-fluoro-1-oxoisoindolin-2-yl)-N-(thiazol-2-yl)acetamide], for which the IC50 in the assay on H1975 was in the range of 0.01 to 0.05 µM. For the same molecule, the “Degradation of substrate protein EGFR (substrate protein remaining %)” value (shortened to “Degradation … (substrate protein remaining %)”) in the assay with EGFR is “A (A is defined as 0% ≤ substrate protein remaining % ≤ 80%)”.
As for `O=C1CCN(c2ccc(CN3C[C@@H]4C[C@H]3CN4c3ccc(-c4cc(F)c5c(c4)C(=O)N(C(C(=O)Nc4nccs4)c4ncn6c4CCC6)C5)cc3)nc2)C(=O)N1` (stereo partly drawn) [GT-05119, 2-(6,7-dihydro-5H-pyrrolo[1,2-c]imidazol-1-yl)-2-(6-(4-((1S,4S)-5-((5-(2,4-dioxotetrahydropyrimidin-1(2H)-yl)pyridin-2-yl)methyl)-2,5-diazabicyclo[2.2.1]heptan-2-yl)phenyl)-4-fluoro-1-oxoisoindolin-2-yl)-N-(thiazol-2-yl)acetamide], in the assay with H1975, the IC50 lay within 0.01 to 0.05 µM. For the same molecule, in the assay with EGFR, the “Degradation … (substrate protein remaining %)” value is reported as “A (A is defined as 0% ≤ substrate protein remaining % ≤ 80%)”.
The matching figures for `O=C1CCN(c2cccc(CN3CCN(c4ccc(-c5cc(F)c6c(c5)C(=O)N(C(C(=O)Nc5nccs5)c5ncn7c5CCC7)C6)cc4)CC3)c2)C(=O)N1` (stereo not shown) [GT-06165, 2-(6,7-dihydro-5H-pyrrolo[1,2-c]imidazol-1-yl)-2-(6-(4-(4-(3-(2,4-dioxotetrahydropyrimidin-1(2H)-yl)benzyl)piperazin-1-yl)phenyl)-4-fluoro-1-oxoisoindolin-2-yl)-N-(thiazol-2-yl)acetamide]: 0.001 to 0.01 µM and “A (A is defined as 0% ≤ substrate protein remaining % ≤ 80%)”.
The matching figures for `O=C1CCN(c2cc(CN3C[C@H]4C[C@@H]3CN4c3ccc(-c4cc(F)c5c(c4)C(=O)N(C(C(=O)Nc4nccs4)c4ncn6c4CCC6)C5)cc3)c(F)cn2)C(=O)N1` (stereo partly drawn) [GT-07386, 2-(6,7-dihydro-5H-pyrrolo[1,2-c]imidazol-1-yl)-2-(6-(4-((1R,4R)-5-((2-(2,4-dioxotetrahydropyrimidin-1(2H)-yl)-5-fluoropyridin-4-yl)methyl)-2,5-diazabicyclo[2.2.1]heptan-2-yl)phenyl)-4-fluoro-1-oxoisoindolin-2-yl)-N-(thiazol-2-yl)acetamide]: 0.001 to 0.01 µM and “A (A is defined as 0% ≤ substrate protein remaining % ≤ 80%)”.
In the case of `O=C1CCN(c2ccc(CN3CCN(C4CCN(c5ccc(-c6cc(F)c7c(c6)C(=O)N(C(C(=O)Nc6nccs6)c6ncn8c6CCC8)C7)cc5)CC4)CC3)cc2)C(=O)N1` (stereo not shown) [GT-06244, 2-(6,7-dihydro-5H-pyrrolo[1,2-c]imidazol-1-yl)-2-(6-(4-(4-(4-(4-(2,4-dioxotetrahydropyrimidin-1(2H)-yl)benzyl)piperazin-1-yl)piperidin-1-yl)phenyl)-4-fluoro-1-oxoisoindolin-2-yl)-N-(thiazol-2-yl)acetamide], in the assay with H1975, the IC50 was in the range of 0.001 to 0.01 µM. Further, in the assay on EGFR, the “Degradation … (substrate protein remaining %)” value is recorded as “A (A is defined as 0% ≤ substrate protein remaining % ≤ 80%)”.
The matching figures for `O=C1CCN(c2ccc(CN3CCN(c4ccc(-c5cc(F)c6c(c5)C(=O)N(C(C(=O)Nc5nccs5)c5ncn7c5CCC7)C6)cc4)CC3)nc2)C(=O)N1` (stereo not shown) [GT-06229, 2-(6,7-dihydro-5H-pyrrolo[1,2-c]imidazol-1-yl)-2-(6-(4-(4-((5-(2,4-dioxotetrahydropyrimidin-1(2H)-yl)pyridin-2-yl)methyl)piperazin-1-yl)phenyl)-4-fluoro-1-oxoisoindolin-2-yl)-N-(thiazol-2-yl)acetamide]: 0.001 to 0.01 µM and “A (A is defined as 0% ≤ substrate protein remaining % ≤ 80%)”.
The matching figures for `O=C1CCN(c2ccc(CN3C[C@@H]4C[C@H]3CN4c3ccc(-c4cc(F)c5c(c4)C(=O)N(C(C(=O)Nc4nccs4)c4ncn6c4CCC6)C5)cc3)cc2)C(=O)N1` (stereo partly drawn) [GT-05116, 2-(6,7-dihydro-5H-pyrrolo[1,2-c]imidazol-1-yl)-2-(6-(4-((1S,4S)-5-(4-(2,4-dioxotetrahydropyrimidin-1(2H)-yl)benzyl)-2,5-diazabicyclo[2.2.1]heptan-2-yl)phenyl)-4-fluoro-1-oxoisoindolin-2-yl)-N-(thiazol-2-yl)acetamide]: 0.01 to 0.05 µM and “A (A is defined as 0% ≤ substrate protein remaining % ≤ 80%)”.
The matching figures for `CN(Cc1cncc(C2CCC(=O)NC2=O)c1)C1CCN(c2ccc(-c3cc(F)c4c(c3)C(=O)N(C(C(=O)Nc3nccs3)c3ncn5c3CCC5)C4)cc2)CC1` (stereo not shown) [GT-07393, 2-(6,7-dihydro-5H-pyrrolo[1,2-c]imidazol-1-yl)-2-(6-(4-(4-(((5-(2,6-dioxopiperidin-3-yl)pyridin-3-yl)methyl)(methyl)amino)piperidin-1-yl)phenyl)-4-fluoro-1-oxoisoindolin-2-yl)-N-(thiazol-2-yl)acetamide]: 0.001 to 0.01 µM and “A (A is defined as 0% ≤ substrate protein remaining % ≤ 80%)”.
With `O=C1CCN(c2cccc(CN3C[C@@H]4C[C@H]3CN4c3ccc(-c4cc(F)c5c(c4)C(=O)N(C(C(=O)Nc4nccs4)c4ncn6c4CCC6)C5)cc3)c2)C(=O)N1` (stereo partly drawn) [GT-05117, 2-(6,7-dihydro-5H-pyrrolo[1,2-c]imidazol-1-yl)-2-(6-(4-((1S,4S)-5-(3-(2,4-dioxotetrahydropyrimidin-1(2H)-yl)benzyl)-2,5-diazabicyclo[2.2.1]heptan-2-yl)phenyl)-4-fluoro-1-oxoisoindolin-2-yl)-N-(thiazol-2-yl)acetamide], the IC50 in the assay with H1975 lay within 0.01 to 0.05 µM. For the same molecule, in the assay on EGFR, the “Degradation … (substrate protein remaining %)” value is listed as “A (A is defined as 0% ≤ substrate protein remaining % ≤ 80%)”.
The matching figures for `O=C1CCN(c2cccc(CN3C[C@H]4C[C@@H]3CN4c3ccc(-c4cc(F)c5c(c4)C(=O)N(C(C(=O)Nc4nccs4)c4ncn6c4CCC6)C5)cc3)c2)C(=O)N1` (stereo partly drawn) [GT-06178, 2-(6,7-dihydro-5H-pyrrolo[1,2-c]imidazol-1-yl)-2-(6-(4-((1R,4R)-5-(3-(2,4-dioxotetrahydropyrimidin-1(2H)-yl)benzyl)-2,5-diazabicyclo[2.2.1]heptan-2-yl)phenyl)-4-fluoro-1-oxoisoindolin-2-yl)-N-(thiazol-2-yl)acetamide]: 0.001 to 0.01 µM and “A (A is defined as 0% ≤ substrate protein remaining % ≤ 80%)”.
The matching figures for `O=C1CCC(c2ccc(CN3CCN(C4CCN(c5ccc(-c6cc(F)c7c(c6)C(=O)N(C(C(=O)Nc6nccs6)c6ncn8c6CCC8)C7)cc5)CC4)CC3)cc2)C(=O)N1` (stereo not shown) [GT-06243, 2-(6,7-dihydro-5H-pyrrolo[1,2-c]imidazol-1-yl)-2-(6-(4-(4-(4-(4-(2,6-dioxopiperidin-3-yl)benzyl)piperazin-1-yl)piperidin-1-yl)phenyl)-4-fluoro-1-oxoisoindolin-2-yl)-N-(thiazol-2-yl)acetamide]: 0.001 to 0.01 µM and “A (A is defined as 0% ≤ substrate protein remaining % ≤ 80%)”.

The values above are taken from patent publication EP4678638A1, “NEW E3 UBIQUITIN LIGASE LIGAND, PROTEIN DEGRADATION AGENT AND USE THEREOF” (priority 2023, dated 2024).
